The source of these data is US6555528B2 (Board of Supervisors of Louisiana State University and …, priority 1999, dated 2003).

Like-named read-outs stand apart in the source and are kept apart here.

Data set [1] in a line: Water solubility (observation at synthesis). The class given is physicochemical.
The target in data set [2] is T1, biotin carboxylase from Escherichia coli (Escherichia coli, UniProt P24182).
T1 construct: histidine-tag (N); made in house; host or cells: E. coli BL21(DE3)pLysS
Nature of the data set: Biotin carboxylase inhibition assay (spectrophotometric, ADP production coupled to pyruvate kinase/lactate dehydrogenase). Type of data set: biochemical. Here is the method: It catalyzes the first partial reaction shown above as reaction (1). […] See S. Li et al., J. Biol. Chem., vol. 267, 855-863 (1992); and H. Kondo et al., Proc. Natl. Acad. Sci. USA, vol. 88, pp. 9730-9733 (1991).
Purification was performed with a histidine-tag attached to the amino terminus of a mutant form of the enzyme and nickel affinity chromatography as described in C. […] 38, pp. 3393-3400 (1999).
The amount of ADP was determined using pyruvate kinase and lactate dehydrogenase, and the oxidation of NADH was followed at 340 nm. Each measurement was carried out in a volume of 0.5 ml in 1 cm path length quartz cuvettes. The reaction mixture contained 10 units of pyruvate kinase, 18 units of lactate dehydrogenase, 0.5 mM phosphoenolpyruvate, 0.2 mM NADH, 8 mM MgCl2 and 100 mM HEPES at pH 8.0. For inhibition studies compound 1 was dissolved in water, and the pH adjusted to 8 with HCl. The concentration of compound 1 was assayed by phosphorus analysis using the method of B. Ames et al., J. Biol. Chem., vol. 235, pp. 769-775 (1960).

In the case of `O=C(O)CCCCC1SCC2C1NC(=O)N2C(=O)CP(=O)(O)O` (stereo not drawn) [Compound 1, 5-(6,8-Diaza-7-oxo-6-(2-phosphonoacetyl)-3-thiabicyclo[3.3.0] Oct-2-yl) pentanoic acid], in data set [1], the water solubility result was “water soluble”. Moreover, the Ki in data set [2] (competitive inhibition versus ATP, read-out: slope inhibition constant) was 8 mM; in data set [2] (preliminary characterization, 9 mM bicarbonate, 0.1 mM ATP, 100 mM biotin, pH 8.0, read-out: inhibition constant), about 8 mM.
Regarding `O=C(O)CP(=O)(O)O` [Phosphonoacetate], the “type of inhibition versus ATP” value in data set [2] (versus ATP) is “competitve inhibition”. In data set [2] (versus bicarbonate), the “type of inhibition versus bicarbonate” value is on record as “noncompetitve inhibition”.
As to `O=C(O)CCCC[C@@H]1SC[C@@H]2NC(=O)N[C@@H]21` [biotin], the “substrate inhibition of biotin carboxylase” value in data set [2] (biotin as substrate) is given as “noncompetitive substrate inhibitor”.
